Results: paper PMC12730667, “A Scorpion Peptide Exerts Selective Anti-Leukemia Effects Through Disrupting Cell Membranes and Triggering Bax/Bcl-2-Related Apoptosis Pathway” (Biomolecules, 2025)
Where no end group is shown, it is not given here.

Key:
[1] = Solubility of the synthesized peptide in PBS and DMSO; type: physicochemical; details: peptide excluded from experimental verification
Text: Based on the anticancer prediction model CNBT-ACPred established by our team previously, there are 276 toxic animal polypeptides whose average prediction score is greater than 0.73. Then, based on the top prediction scores and species diversity, seven candidate peptides were chosen for subsequent experimental validation (Table 2).

[2] = test system: 24 distinct cancer cell lines; type: cell-based; details: CCK-8, 5, 10 and 20 μM
Protocol: (§1) All cell lines, including CT26.WT, LLC, MV-4-11, HCT-116, ID8, Jurkat, L1210, OVCAR-8, YAC-1, MDA-MB-231, MEL, Mia PaCa-2, B16-F10, HepG2, A549 Hela, 4T1, Panco2, K562, RAJI, A375, HL-60, H1975, HaCat, HUVEC, and HDF, were obtained from the National Collection of Authenticated Cell Cultures (Shanghai, China) or saved in the lab and cultured in RPMI-1640 or DMEM or IMEM medium supplemented with 10% (v/v) fetal bovine serum (FBS), 100 units/mL penicillin, 100 µg/mL streptomycin, and 0.05% (v/v) L-glutamine serum in a humidified atmosphere of 5% CO2 at 37 °C.
To determine the effects of Lpep3 on cell cytotoxicity, the Cell Counting Kit-8 (CCK8) assay was performed according to the manufacturer’s protocol. Cells were seeded at 8 × 10^3 cells per well and treated with Lpep3 at different concentrations (100, 50, 25, 12.5, 6.25, 3.125, 1.56, 0.78, 0.39 μM) for 24 h. […] The absorbance at 450 nm was measured using a microplate reader (BioTek, Winooski, VT, USA). […] IC50 values were calculated using non-linear regression analysis of the dose–response curves in GraphPad Prism (8.0.2). The percentage of cellular viability was calculated using the following equation: Cell Viability %=ODSample−ODBlank/ODControl−ODBlank×100%
To comprehensively characterize the anticancer activity of peptides Lpep1–Lpep7, their cytotoxic effects across 24 distinct cancer cell lines were assessed using CCK-8 assays. […]

4T1 cells = type: cell-based; details: 24 h
Protocol: as §1
(§2) To determine the effects of Lpep3 on cell cytotoxicity, the Cell Counting Kit-8 (CCK8) assay was performed according to the manufacturer’s protocol. Cells were seeded at 8 × 10^3 cells per well and treated with Lpep3 at different concentrations (100, 50, 25, 12.5, 6.25, 3.125, 1.56, 0.78, 0.39 μM) for 24 h. Subsequently, 10 μL of CCK8 reagent (Abbkine, Wuhan, China) was added to each well and incubated for 1–4 h at 37 °C. The absorbance at 450 nm was measured using a microplate reader (BioTek, Winooski, VT, USA). The half-maximal inhibitory concentration (IC50) was defined as the peptide concentration required to reduce cell viability by 50% relative to the untreated control. IC50 values were calculated using non-linear regression analysis of the dose–response curves in GraphPad Prism (8.0.2). The percentage of cellular viability was calculated using the following equation: Cell Viability %=ODSample−ODBlank/ODControl−ODBlank×100%

B16-F10 cells = type: cell-based; details: 24 h
Protocol: as §1, §2

CT26.WT cells = type: cell-based; details: 24 h
Protocol: as §1, §2

H1975 cells = type: cell-based; details: 24 h
Protocol: as §1, §2

HDF cells = type: cell-based; details: 24 h
Protocol: as §1, §2

HUVEC cells = type: cell-based; details: 24 h
Protocol: as §1, §2

HaCaT cells = type: cell-based; details: 24 h
Protocol: as §1, §2

ID8 cells = type: cell-based; details: 24 h
Protocol: as §1, §2

LLC cells = type: cell-based; details: 24 h
Protocol: as §1, §2

Panc02 cells = type: cell-based; details: 24 h
Protocol: as §1, §2

A375 cells = type: cell-based, human; details: 24 h
Protocol: as §1, §2

A549 cells = type: cell-based, human; details: 24 h
Protocol: as §1, §2

HCT116 cells = type: cell-based, human; details: 24 h
Protocol: as §1, §2

HL-60 cells = type: cell-based, human; details: 24 h
Protocol: as §1, §2

HeLa cells = type: cell-based, human; details: 24 h
Protocol: as §1, §2

Hep G2 cells = type: cell-based, human; details: 24 h
Protocol: as §1, §2

Jurkat cells = type: cell-based, human; details: 24 h
Protocol: as §1, §2

K562 cells = type: cell-based, human
Protocol: as §1, §2

MDA-MB-231 cells = type: cell-based, human; details: 24 h
Protocol: as §1, §2

MV-4-11 cells = type: cell-based, human
Protocol: as §1, §2

Mia PaCa-2 cells = type: cell-based, human; details: 24 h
Protocol: as §1, §2

OVCAR-8 cells = type: cell-based, human; details: 24 h
Protocol: as §1, §2

L1210 cells = details: 24 h
Protocol: as §1, §2

MEL cells = details: 24 h
Protocol: as §1, §2

YAC-1 cells = details: 24 h
Protocol: as §1, §2

Primary PBMC = type: cell-based; details: 24 h
Protocol: Briefly, fresh anticoagulated whole blood was collected and diluted with 1× PBS buffer at a ratio of 1:1, followed by gentle mixing. Then, an appropriate volume of mononuclear cell separation medium was added to a sterile centrifuge tube, and the diluted blood sample was carefully layered onto the surface of the separation medium (separation medium–diluted whole blood = 1:2) while maintaining a clear interface between the two layers. Then, it was centrifuged at 450× g for 20–30 min at room temperature. After centrifugation, the plasma layer was aspirated and discarded, then the PBMC layer was carefully collected (i.e., the buffy coat) and transferred to a 15 mL centrifuge tube. […] The isolated PBMCs were then ready for subsequent experiments.
To determine the effects of Lpep3 on cell cytotoxicity, the Cell Counting Kit-8 (CCK8) assay was performed according to the manufacturer’s protocol. […] The absorbance at 450 nm was measured using a microplate reader (BioTek, Winooski, VT, USA). […] IC50 values were calculated using non-linear regression analysis of the dose–response curves in GraphPad Prism (8.0.2). The percentage of cellular viability was calculated using the following equation: Cell Viability %=ODSample−ODBlank/ODControl−ODBlank×100%

solid tumor cell lines = assay: CCK-8 IC50, solid cancer cell lines as a group; type: cell-based; details: range over hepatocellular, pancreatic, breast, cervical, lung, colorectal, ovarian and melanoma cell lines, CCK-8, 24 h; read-out: IC50 values in solid cancers
Protocol: as §2
Based on the above results, subsequent studies will focus on determining the IC50 of Lpep3 to accurately quantify the intensity of its anticancer activity. […] The ovarian cell was the most sensitive in solid tumor cell lines.

non-cancer cells = type: cell-based; details: 24 h
Protocol: as §2
The lowest values approached 0.6 μM in MV-4-11. […] Based on this discrepancy, concentrations of 0.5 μM and 1 μM were selected for subsequent experiments.

red blood cells = assay: Hemolytic activity assay; type: cell-based; details: red blood cells in PBS, 37 °C, 1 h, absorbance 450 nm, 0.1% Triton X-100 as positive control, Figure S2B
Protocol: A total of 500 μL fresh whole blood was collected and diluted with 5 mL PBS and then centrifuged at 1000 rpm for 5 min to remove the plasma. The pellet was washed again by adding PBS to a final volume of approximately 10 mL, followed by centrifuging at 1000 rpm for 5 min. This washing step was repeated until the supernatant became clear. The resulting red blood cell pellet was then resuspended in 10 mL PBS. For the hemolysis assay, 200 μL suspension was mixed with 200 μL Lpep3 with different concentrations (100, 50, 25, 12.5, 6.25, 3.125, 1.57, 0.78, 0.39 μM). The positive control consisted of 200 μL suspension mixed with 200 μL 0.1% Triton X-100, while the negative control contained 200 μL RBC suspension and 200 μL PBS. All mixtures were incubated at 37 °C for 1 h, followed by centrifugation at 12,000 rpm for 5 min. The supernatant was collected and measured at 450 nm. The hemolysis rate was calculated using the following equation: Hemolysis rate%=ODSample−ODnegative/ODPositive−ODnagative×100%

[3] = In vivo biosafety in tumor-bearing nude mice (body weight, blood, liver/kidney function, H&E); parameters: species or system mouse; details: 10 mg/kg i.p. every other day, 6 injections
Text: Healthy male BALB/c nu/nu nude mice (aged 4–5 weeks) were purchased from Slac & Jingda Laboratory Animal Co., Ltd. (Changsha, China). All animal experiments were strictly approved by the Institutional Animal Care and Use Committee (IACUC) of Hunan Normal University, and the Guidelines for the Care and Use of Laboratory Animals issued by the National Institutes of Health (NIH, Bethesda, MD, USA) were strictly adhered to throughout the experiment. MV-4-11 cells (5 × 10^6 cells resuspended in a 1:1 mixture of Matrigel and PBS) were subcutaneously (s.c.) injected into the right axillary fossa of each mouse. When the tumor volume reached 100–150 mm^3, all mice were randomly divided into two groups (n = 4). Mice in the experimental group were intraperitoneally injected with 50 μL of Lpep3 (10 mg/kg), while those in the control group received an intraperitoneal injection of an equal volume of sterile PBS. The day of the first injection was defined as Day 0. Injections were administered every other day, with a total of 6 administrations. Additionally, the tumor volume and body weight of mice in each group were monitored at regular intervals. After the experiment, major organs were dissected, fixed in 4% paraformaldehyde (PFA), and subjected to histological examination. Major organs were further stained with hematoxylin and eosin (H&E) for pathological analysis.
After euthanasia, whole blood was collected and allowed to stand at 4 °C for 1 h and then centrifuged at 3000× g for 10 min to obtain serum. Serum biochemical and liver/kidney function parameters, including RBC, NEU, HGB, ALT, AST, BUN, and creatinine, were analyzed using an automated chemistry analyzer (TBA-40FR, Tochigi, Japan) according to the manufacturer’s instructions.

Raji cells = type: cell-based, human; details: Raji, 5, 10 and 20 μM, CCK-8
Protocol: as §1
as §2, with “Cells were seeded at 8 × 10^3 cells per well and treated with Lpep3 at different concentrations (100, 50, 25, 12.5, 6.25, 3.125, 1.56, 0.78, 0.39 μM) for 24 h.” left out

GLFDIAKKVIGVIGSL [Lpep4, 16-residue candidate peptide, species Ranoidea raniformis]
solubility in PBS and DMSO [1]: poor solubility

FFGSLLSLGSKLLPSVFKLFQRKKE [Lpep3]
cytotoxic effects across 24 distinct cancer cell lines [2]: potent, broad-spectrum cytotoxic peptide | IC50 (4T1 cells): 3050 nM | IC50 (B16-F10 cells): 11800 nM | IC50 (CT26.WT cells): 2000 nM | IC50 (H1975 cells): 3040 nM | IC50 (HDF cells): 4520 nM | IC50 (HUVEC cells): 6420 nM | IC50 (HaCaT cells): 5800 nM | IC50 (ID8 cells): 1990 nM | IC50 (LLC cells): 2320 nM | IC50 (Panc02 cells): 2870 nM | IC50 (A375 cells): 2230 nM | cell viability (A375 cells; 5 μM): ~0% | IC50 (A549 cells): 2720 nM | IC50 (HCT116 cells): 3200 nM | IC50 (HL-60 cells): 1490 nM | IC50 (HeLa cells): 2720 nM | cell viability (HeLa cells; 5 μM): ~0% | IC50 (Hep G2 cells): 6990 nM | IC50 (Jurkat cells): 554 nM | cell viability (Jurkat cells; 5 μM): ~0% | IC50 (K562 cells; 24 h): 656 nM | cell viability (K562 cells; 24 h, 5 μM): ~0% | IC50 (MDA-MB-231 cells): 2320 nM | cell viability (MDA-MB-231 cells; 5 μM): ~0% | IC50 (MV-4-11 cells; 24 h): 600 nM | cell viability (MV-4-11 cells; 24 h, 5 μM): ~0% | IC50 (Mia PaCa-2 cells): 5400 nM | IC50 (OVCAR-8 cells): 1300 nM | cell viability (OVCAR-8 cells; 5 μM): ~0% | IC50 (L1210 cells): 2050 nM | IC50 (MEL cells): 563 nM | IC50 (YAC-1 cells): 728 nM | IC50 (Primary PBMC): 3810 nM | IC50 (solid tumor cell lines): 1300 to 11000 nM | IC50 (non-cancer cells): ~5000 nM | concentration at which a 50% hemolysis rate was observed (red blood cells): 12.5 µM | liver and kidney function indices (AST, ALT, UA, CRE) ([3]; n = 4, serum): remained within the normal range | blood routine indices (RBC, HGB, Neu) ([3]; n = 4, vs PBS): no obvious difference | body weight ([3]; n = 4, vs PBS): no obvious difference | H&E staining of liver, spleen and kidney ([3]; vs control group): no obvious damage

FVQWFSKFLGRIL [Lpep7, 13-residue candidate peptide, species Rana temporaria]
cytotoxic activity (K562 cells; K562, 5, 10 and 20 μM, CCK-8): moderate activity | cytotoxic activity (MV-4-11 cells; MV-4-11, 5, 10 and 20 μM, CCK-8): moderate activity | cytotoxic activity (Raji cells): moderate activity
